Target: T1, aromatase (cytochrome P450 aromatase) (Homo sapiens, UniProt P11511)
T1 construct: Human placentas were used; from tissue; host or cells: human placenta, microsomes (105,000 g pellet)
T1 sequence (P11511 1-503): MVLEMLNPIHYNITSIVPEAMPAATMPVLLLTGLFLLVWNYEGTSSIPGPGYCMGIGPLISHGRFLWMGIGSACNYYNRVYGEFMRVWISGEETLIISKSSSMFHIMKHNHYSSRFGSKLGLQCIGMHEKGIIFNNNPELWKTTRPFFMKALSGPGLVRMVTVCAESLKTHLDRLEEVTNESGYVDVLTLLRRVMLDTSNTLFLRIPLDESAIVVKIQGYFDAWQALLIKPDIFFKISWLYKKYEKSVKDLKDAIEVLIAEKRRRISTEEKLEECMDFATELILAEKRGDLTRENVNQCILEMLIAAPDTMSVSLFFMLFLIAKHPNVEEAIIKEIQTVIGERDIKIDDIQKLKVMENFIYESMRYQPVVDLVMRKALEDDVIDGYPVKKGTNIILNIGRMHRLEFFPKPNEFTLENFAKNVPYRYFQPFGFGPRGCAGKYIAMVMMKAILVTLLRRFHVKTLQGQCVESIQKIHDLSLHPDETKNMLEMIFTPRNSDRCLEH
Experiment: Aromatase inhibition in human placental microsomes (tritiated water release from 1-2-(^3H)-androstenedione)
Format: biochemical
Details: 25 micrograms protein per test, 60 nM androstene-dione substrate, NADPH, pH 7.2, 37° C., 10 minutes, read-out: IC50 (concentration of inhibitor necessary to decrease by 50% the enzymatic activity)
Description: Inhibition dependent on the concentration (measurement of the IC50 =concentration of the inhibitor necessary to reduce the enzymatic activity by 50%). Human placentas were used which one hour or more after birth were washed, perfused with physiological serum (5 liters) via the umbilical vein and then frozen at -40° C.
The placentas were thawed at 4° C., then homogenized (1:3) in a 10 mM phosphate buffer, pH=7.0, containing 100 mM of potassium chloride (KCl), 10 mM of dithiothreitol (DTT), 10 mM of ethylenediaminetetra-aceticacid (EDTA), 40 mM of nicotinamide and 250 mM of sucrose. The homogenates were then subjected to various stages of centrifugation until the "9000 g" supernatant was obtained (corresponding to cytosol and to endoplasmic reticulum). This supernatant was then subjected to an ultracentrifugation stage (90 minutes, 105,000 g) to obtain the microsome deposit. […] The protein concentration of the microsome suspension was determined by the BRADFORD method (BRADFORD, Anal. Biochem., Vol. 72 (1976), p. 248). […]
The enzymatic reaction was then very quickly started by the addition of 10 microliters of reduced nicotinamide adenine dinucleotide phosphate (NADPH) dissolved in water. […] After centrifugation, and for each tube, 100 microliters of supernatant was removed and counted in the presence of scintillating liquid. […]

## C[C@]12CCC(=O)C(SCCl)=C1CC[C@@H]1[C@@H]2CC[C@]2(C)C(=O)CC[C@@H]12 [Example 2, 4-Chloromethylthio-Δ^4-androstene-3,17-dione]
  IC50: 75 nM

## C[C@]12CCC(=O)C(SCF)=C1CC[C@@H]1[C@@H]2CC[C@]2(C)C(=O)CC[C@@H]12 [Example 1, 4-fluoromethylthio-Δ^4-androstene-3,17-dione]
  IC50: 70 nM

From patent US4988684A, “Novel 4-alkylthio-steroids” (Roussel Uclaf, priority 1988, dated 1991)
